Article PMC9733678, “Combining drug salt formation with amorphous solid dispersions – a double edged sword” (Journal of Controlled Release, 2022)

How the values were obtained:
[1] = Physical stability, open dish 40 °C/75% RH, monitored by PXRD; type: physicochemical; settings: neat amorphous salt
Procedure: PXRD patterns of the lumefantrine salts and salt ASDs were collected using an X-ray diffractometer (Rigaku SmartLab, Rigaku Americas, The Woodlands, TX) operating at 40 kV and […] in Bragg–Brentano mode with a Cu-kα radiation source and D/tex ultra detector. Each sample was spread thinly on a glass sample holder. Data was collected from 4 to 40° 2θ using a step size of 0.02° and a scan rate of 4°/min.
To assess the physical stability of the salts and salt ASDs, the samples were stored in open dish accelerated stability conditions of 40 °C/ 75% RH. At pre-determined time intervals, the samples were removed and their PXRD patterns collected.

[2] = Water sorption analysis of amorphous lumefantrine salts (DVS); type: physicochemical; settings: neat amorphous salt; for weight gain (water sorption): 95% RH
Procedure: Water sorption profiles of the amorphous lumefantrine salts were measured using a DVS Adventure water vapor sorption analyzer (Surface Measurement Systems, Wembley, UK). Powdered salt (5–10 mg) was dried at 0% RH in the instrument for 120 min. After drying, the RH within the chamber was increased from 5% to 95% at a 5% step interval. The equilibrium criterion was a percent weight change over time (% dm/dt) of <0.002%/min for 10 min. Nitrogen was used as the purging gas.

[3] = parameters: method as in PMID 10468018; settings: amorphous salt; cited from earlier work
[4] = Thermal analysis (DSC), onset glass transition temperature; type: physicochemical; settings: for Tg (glass transition temperature) of neat amorphous material: DSC
Procedure: A Q2000 differential scanning calorimeter (DSC; Q2000, TA Instruments, New Castle, DE) connected to an RCS 90 refrigerated cooling system (TA Instruments, New Castle, DE) was used to analyze the lumefantrine salts and salt ASDs. The thermal properties of lumefantrine free base, lumefantrine free base ASDs, and neat PVPVA were also analyzed. The purging gas used was dry nitrogen (50 mL/min flow rate). Temperature calibration of the DSC was performed using indium and tin, while indium was used for enthalpy calibration. Each sample (5–10 mg) was carefully weighed and sealed in a Tzero aluminum sample pan (TA Instruments, New Castle, DE). The procedure to obtain the sample Tg is as follows: equilibration at −10 °C, followed by heating with a modulation of ±0.636 °C every 40 s at 3 °C/min to the temperature of interest. The samples were then cooled to −10 °C at 10 °C/min and reheated at 5 °C/min. The first heating cycle was used to remove thermal history associated with the samples, while the second cycle was used to obtain the sample Tg.

[5] = parameters: method as in PMID 32134677; settings: PVPVA ASD; cited from earlier work
[6] = parameters: method as in PMID 23763957; settings: cited from earlier work
[7] = parameters: method as in PMID 24189249; settings: cited from earlier work

With `CCCCN(CCCC)CC(O)c1cc(Cl)cc2c1-c1ccc(Cl)cc1C2=Cc1ccc(Cl)cc1.Cl` (centres unmarked) [HCl salt, Lumefantrine HCl] the “time re-crystallization was resisted” value [1] was “at least 16 weeks” and the “weight gain (water sorption)” value [2] was under 2%.

For `COc1ccc2c(c1)c(CC(=O)[O-])c(C)n2C(=O)c1ccc(Cl)cc1.[Na+]` [Na indomethacin], the “Tg higher than indomethacin free acid” value [3] is listed as about 75 °C.

In the case of `CCCCN(CCCC)CC(O)c1cc(Cl)cc2c1-c1ccc(Cl)cc1/C2=C/c1ccc(Cl)cc1.O=C(O)c1ccccc1` (centres unmarked) [benzoate salt, Lumefantrine benzoate], the “elevation in Tg relative to the free base” value ([4]; neat amorphous salt) is reported as about 10 °C, the “storage time at which crystalline peaks were observed” value (“storage time” below) [1] is reported as at most 4 weeks and the “weight gain (water sorption)” value [2] is reported as under 2%.

In the case of `CCCCN(CCCC)CC(O)c1cc(Cl)cc2c1-c1ccc(Cl)cc1C2=Cc1ccc(Cl)cc1.O=S(=O)(O)c1ccccc1` (centres unmarked) [besylate salt, Lumefantrine besylate], the “storage time” value [1] is reported as at most 4 weeks and the “weight gain (water sorption)” value [2] is reported as under 2%.

In the case of `CC1(C)[C@@H]2CC[C@@]1(CS(=O)(=O)O)C(=O)C2.CCCCN(CCCC)CC(O)c1cc(Cl)cc2c1-c1ccc(Cl)cc1/C2=C/c1ccc(Cl)cc1` (centres unmarked) [camsylate salt, Lumefantrine camsylate], the “storage time” value [1] is reported as 32 weeks and the “weight gain (water sorption)” value [2] is reported as under 2%.

In the case of `COc1ccc2c(c1)c(CC(=O)O)c(C)n2C(=O)c1ccc(Cl)cc1` [indomethacin], the “limit of congruency (LoC)” value [5] is given as 10%.

For `CCCCN(CCCC)CC(O)c1cc(Cl)cc2c1-c1ccc(Cl)cc1/C2=C/c1ccc(Cl)cc1` (centres unmarked) [lumefantrine, reference compound], the “Tg (glass transition temperature) of neat amorphous material” value (“Tg (glass transition temperature)” below) [4] is given as 19.7 °C, the “Tg (glass transition temperature)” value ([4]; listed as free base) is given as 20 °C and the “pKa of tertiary amine” value [6] is given as 8.73. For the same compound, the “log P” value [7] was 8.34.

With `CCCCN(CCCC)CC(O)c1cc(Cl)cc2c1-c1ccc(Cl)cc1/C2=C/c1ccc(Cl)cc1.CCCCN(CCCC)CC(O)c1cc(Cl)cc2c1-c1ccc(Cl)cc1/C2=C/c1ccc(Cl)cc1.O=S(=O)(O)O` (centres unmarked) [sulfate salt, Lumefantrine sulfate] the “Tg (glass transition temperature)” value [4] was 101 °C, the “time re-crystallization was resisted” value [1] was “at least 16 weeks” and the “weight gain (water sorption)” value [2] was 3.3%.

In the case of `CCCCN(CCCC)CC(O)c1cc(Cl)cc2c1-c1ccc(Cl)cc1C2=Cc1ccc(Cl)cc1.Cc1ccc(S(=O)(=O)O)cc1` (centres unmarked) [tosylate salt, Lumefantrine tosylate], the “weight gain (water sorption)” value [2] is reported as under 2%.

In the case of “Lumefantrine PEG 250 diacid [PEG 250 diacid (1:1) salt]”, the “appearance after exposure to 95% RH” value [2] is reported as “liquified”, the “increase in weight (water sorption)” value ([2]; 90% RH) is reported as 5.1% and the “weight gain (water sorption)” value [2] is reported as 6.6%.

For “Lumefantrine PEG 250 diacid [PEG 250 diacid (2:1) salt]”, the “storage time” value [1] was at most 4 weeks.
